# From patent US11801284B2, “Compositions and methods for treating motor neuron diseases” (The Trustees of Columbia University in the City of New York, priority 2017, dated 2023)
# Legend:
# [1] = system: luciferase; experiment: luciferase refolding assay (chaperone activity); type: biochemical; conditions: crude yeast lysate from cells transfected with Hspa8^G470R or WT construct; FIG. 4
# Description: Expt. 2A: Does the G470R mutation affect Hspa8 chaperone activity? There is a fine balance between the chaperone activity of Hspa8, which involves ATP and the co-chaperone proteins Sgt (small […] tetratricopeptide repeat-containing protein) and CSP (cysteine string protein), and its role in microautophagy, which is effected independently of ATP and the co-chaperones^36. Altering the ratio of Hspa8 with respect to its co-chaperones, or introducing mutations in certain Hspa8 domains, can shift the balance towards or away from microautophagy and thus alter neurotransmission at the NMJ. For instance, mutations in the ATPase domain disrupt chaperone activity but leave the role of Hspa8 in microautophagy intact. In contrast, mutations in the C-terminal domain of Hspa8, which mediate the interaction of the protein with the lysosomal/endosomal membrane, abolish microautophagy but fail to affect the ability of the protein to refold proteins (chaperone activity). […] To test this, we will examine the ability of Hspa8^G470R to refold luciferase. […] The bioluminescence from the luciferase will be assayed, following the addition of Luciferase Assay reagent (Promega), at regular intervals in a luminometer or plate reader. […]
# [2] = system: SMN; experiment: SMN levels in spinal cord tissue of SMA mice by western blotting; type: in vivo; conditions: PND10 SMA mice, western blot, β-tubulin loading control; FIG. 7
# Experimental: PND10 mice of the indicated genotypes were euthanized, and the spinal cord tissue extracted to determine SMN levels by western blotting. β-tubulin was used as a loading control. Band intensities were determined using the NIH ImageJ software.
# [3] = system: S. cerevisae; experiment: in vivo microautophagy assay (vacuolar membrane invagination and intraluminal vesicle formation in yeast); type: cell-based; conditions: in vivo study employing WT and Hspa8^G470R proteins
# Description: Expt. 2B: Does the G470R mutation affect Hspa8-dependent microautophagy? Hspa8-dependent microautophagy relies on the ability of the protein to bind the lysosomal/endosomal membrane. In so doing, Hspa8 deforms the membrane to form tubules, a phenomenon that can be quantified using a “tubulation” assay^36. […] To test this, we will subject the two proteins and a control, Hspa8^3KA, that fails to deform membranes^36, to the tubulation assay. Essentially, bacterial lysate from E. coli over-expressing the different Hspa8 molecules will be combined with fluorescently labeled giant unilamellar vesicles (GUVs) made from a defined mixture of lipids that roughly mimic synaptic membranes^49, and the ability of the proteins to trigger membrane deformation/tubule formation will be assessed by fluorescence microscopy. To complement these in vitro experiments, we will assess the ability of Hspa8^G470R protein to deform membranes in vivo. For this, the protein and relevant controls will be separately expressed in S. cerevisae and vacuolar membrane invagination and intraluminal vesicle formation determined using a co-expressed Vba1-GFP construct as a marker^50.
substance,measurement,setting,value
Hspa8^G470R: mutant Hsp70 family member protein Hspa8 with G470R missense mutation in the substrate binding domain,chaperone activity (efficiency relative to lysate containing WT Hspa8),[1],only a third as efficient
same,SMN level in spinal cord tissue,[2],increases SMN
same,competence in microautophagy assay,[3],competent
